Experimental data as given in ChEMBL document CHEMBL4373676, “Non-lethal growth inhibition by arresting the starch utilization system of clinically relevant human isolates of Bacteroides dorei” (Medchemcomm, 2019).
The source made the active and inactive calls. The rule behind the calls is not given here.

Tests used:
[1] = Inhibition of starch utilizing system in Bacteroides dorei JRO1 assessed as microbial growth at 100 uM measured at 30 mins interval with 15 secs shaking for up to 48 hrs in presence of potato starch by spectrophotometric analysis relative to untreated control; parameters: scale not given: the % may be the effect or the level left; conditions: Phocaeicola dorei
[2] = Inhibition of starch utilizing system in Bacteroides dorei JRO1 assessed as microbial growth at 100 uM measured at 30 mins interval with 15 secs shaking for up to 48 hrs in presence of pullulan by spectrophotometric analysis relative to untreated control; parameters: scale not given: the % may be the effect or the level left; conditions: Phocaeicola dorei
Phocaeicola dorei [3] = experiment: Effect on growth of Bacteroides dorei JRO1 assessed as microbial growth at 100 uM measured at 30 mins interval with 15 secs shaking for up to 48 hrs in presence of maltose by spectrophotometric analysis relative to untreated control; type: organism-based; conditions: in vivo
Phocaeicola dorei [4] = experiment: Effect on growth of Bacteroides dorei JRO1 assessed as microbial growth at 100 uM measured at 30 mins interval with 15 secs shaking for up to 48 hrs in presence of glucose by spectrophotometric analysis relative to untreated control; type: organism-based; conditions: in vivo
[5] = Inhibition of starch utilization system in Bacteroides dorei JRO3 assessed as bacterial growth at 5 uM after 13.5 hrs in presence of pullulan by spectrophotometric analysis relative to untreated control; parameters: scale not given: the % may be the effect or the level left; conditions: Phocaeicola dorei
[6] = Inhibition of starch utilization system in Bacteroides dorei JRO3 assessed as bacterial growth at 5 uM after 14 hrs in presence of potato starch by spectrophotometric analysis relative to untreated control; parameters: scale not given: the % may be the effect or the level left; conditions: Phocaeicola dorei
[7] = Inhibition of starch utilization system in Bacteroides dorei JRO3 assessed as bacterial growth at 1 uM after 13.5 hrs in presence of pullulan by spectrophotometric analysis relative to untreated control; parameters: scale not given: the % may be the effect or the level left; conditions: Phocaeicola dorei
[8] = Inhibition of starch utilization system in Bacteroides dorei JRO3 assessed as bacterial growth at 0.5 uM after 13.5 hrs in presence of pullulan by spectrophotometric analysis relative to untreated control; parameters: scale not given: the % may be the effect or the level left; conditions: Phocaeicola dorei
[9] = Inhibition of starch utilization system in Bacteroides dorei JRO3 assessed as bacterial growth at 1 uM after 14 hrs in presence of potato starch by spectrophotometric analysis relative to untreated control; parameters: scale not given: the % may be the effect or the level left; conditions: Phocaeicola dorei
[10] = Inhibition of starch utilization system in Bacteroides dorei JRO3 assessed as bacterial growth at 0.5 uM after 14 hrs in presence of potato starch by spectrophotometric analysis relative to untreated control; parameters: scale not given: the % may be the effect or the level left; conditions: Phocaeicola dorei
[11] = Inhibition of starch utilization system in Bacteroides dorei JRO3 assessed as reduction in bacterial growth at 0.1 uM after 13.5 hrs in presence of pullulan by spectrophotometric analysis; conditions: Phocaeicola dorei
[12] = Inhibition of starch utilization system in Bacteroides dorei JRO3 assessed as reduction in bacterial growth at 0.1 uM after 14 hrs in presence of potato starch by spectrophotometric analysis; conditions: Phocaeicola dorei
[13] = Inhibition of starch utilization system in Bacteroides dorei JRO3 assessed as increase in doubling time at 10 uM in presence of pullulan by spectrophotometric analysis; conditions: Phocaeicola dorei
[14] = Inhibition of starch utilization system in Bacteroides dorei JRO3 assessed as increase in doubling time at 0.1 to 10 uM in presence of potato by spectrophotometric analysis; conditions: Phocaeicola dorei
Phocaeicola dorei [15] = experiment: Effect on growth of Bacteroides dorei JRO2 assessed as microbial growth at 100 uM measured at 30 mins interval with 15 secs shaking for up to 48 hrs in presence of glucose by spectrophotometric analysis relative to untreated control; type: organism-based; conditions: in vivo
Phocaeicola dorei [16] = experiment: Effect on growth of Bacteroides dorei JRO2 assessed as microbial growth at 100 uM measured at 30 mins interval with 15 secs shaking for up to 48 hrs in presence of maltose by spectrophotometric analysis relative to untreated control; type: organism-based; conditions: in vivo
[17] = Inhibition of starch utilizing system in Bacteroides dorei JRO2 assessed as microbial growth at 100 uM measured at 30 mins interval with 15 secs shaking for up to 48 hrs in presence of pullulan by spectrophotometric analysis relative to untreated control; parameters: scale not given: the % may be the effect or the level left; conditions: Phocaeicola dorei
[18] = Inhibition of starch utilizing system in Bacteroides dorei JRO2 assessed as microbial growth at 100 uM measured at 30 mins interval with 15 secs shaking for up to 48 hrs in presence of potato starch by spectrophotometric analysis relative to untreated control; parameters: scale not given: the % may be the effect or the level left; conditions: Phocaeicola dorei
Phocaeicola dorei [19] = experiment: Effect on growth of Bacteroides dorei JRO3 assessed as microbial growth at 100 uM measured at 30 mins interval with 15 secs shaking for up to 48 hrs in presence of glucose by spectrophotometric analysis relative to untreated control; type: organism-based; conditions: in vivo
Phocaeicola dorei [20] = experiment: Effect on growth of Bacteroides dorei JRO3 assessed as microbial growth at 100 uM measured at 30 mins interval with 15 secs shaking for up to 48 hrs in presence of maltose by spectrophotometric analysis relative to untreated control; type: organism-based; conditions: in vivo
[21] = Inhibition of starch utilizing system in Bacteroides dorei JRO3 assessed as microbial growth at 100 uM measured at 30 mins interval with 15 secs shaking for up to 48 hrs in presence of pullulan by spectrophotometric analysis relative to untreated control; parameters: scale not given: the % may be the effect or the level left; conditions: Phocaeicola dorei
[22] = Inhibition of starch utilizing system in Bacteroides dorei JRO3 assessed as microbial growth at 100 uM measured at 30 mins interval with 15 secs shaking for up to 48 hrs in presence of potato starch by spectrophotometric analysis relative to untreated control; parameters: scale not given: the % may be the effect or the level left; conditions: Phocaeicola dorei
Phocaeicola dorei [23] = experiment: Effect on growth of Bacteroides dorei JRO4 assessed as microbial growth at 100 uM measured at 30 mins interval with 15 secs shaking for up to 48 hrs in presence of glucose by spectrophotometric analysis relative to untreated control; type: organism-based; conditions: in vivo
Phocaeicola dorei [24] = experiment: Effect on growth of Bacteroides dorei JRO4 assessed as microbial growth at 100 uM measured at 30 mins interval with 15 secs shaking for up to 48 hrs in presence of maltose by spectrophotometric analysis relative to untreated control; type: organism-based; conditions: in vivo
[25] = Inhibition of starch utilizing system in Bacteroides dorei JRO4 assessed as microbial growth at 100 uM measured at 30 mins interval with 15 secs shaking for up to 48 hrs in presence of pullulan by spectrophotometric analysis relative to untreated control; parameters: scale not given: the % may be the effect or the level left; conditions: Phocaeicola dorei
[26] = Inhibition of starch utilizing system in Bacteroides dorei JRO4 assessed as microbial growth at 100 uM measured at 30 mins interval with 15 secs shaking for up to 48 hrs in presence of potato starch by spectrophotometric analysis relative to untreated control; parameters: scale not given: the % may be the effect or the level left; conditions: Phocaeicola dorei
[27] = Inhibition of starch utilization system in Bacteroides dorei JRO3 assessed as increase in lag time at 5 uM up to 48 hrs in presence of pullulan by spectrophotometric analysis; conditions: Phocaeicola dorei
[28] = Inhibition of starch utilization system in Bacteroides dorei JRO3 assessed as increase in lag time at 0.1 to 10 uM up to 48 hrs in presence of potato starch by spectrophotometric analysis; conditions: Phocaeicola dorei

Structure (SMILES): C[C@H]1O[C@H](O[C@H]2[C@H](O)[C@@H](O)[C@@H](O[C@H]3[C@H](O)[C@@H](O)C(O)O[C@@H]3CO)O[C@@H]2CO)[C@H](O)[C@@H](O)[C@@H]1N[C@H]1C=C(CO)[C@@H](O)[C@H](O)[C@H]1O (stereo partly drawn) [ACARBOSE]
- Activity [1]: 3.9%
- Activity [2]: 6.5%
- Activity (Phocaeicola dorei [3]): 103%
- Activity (Phocaeicola dorei [4]): 100.7%
- Activity [5]: 11.2%
- Activity [6]: 6.6%
- Activity [7]: 21.3%
- Activity [8]: 49.9%
- Activity [9]: 28.2%
- Activity [10]: 59.9%
- inhibition [11]: inactive
- inhibition [12]: inactive
- inhibition [13]: Active
- inhibition [14]: Active
- Activity (Phocaeicola dorei [15]): 100%
- Activity (Phocaeicola dorei [16]): 99.4%
- Activity [17]: 10.1%
- Activity [18]: 3.7%
- Activity (Phocaeicola dorei [19]): 118.7%
- Activity (Phocaeicola dorei [20]): 123.3%
- Activity [21]: 10.4%
- Activity [22]: 2.6%
- Activity (Phocaeicola dorei [23]): 105.8%
- Activity (Phocaeicola dorei [24]): 71.8%
- Activity [25]: 4.8%
- Activity [26]: 2.4%
- inhibition [27]: Active
- inhibition [28]: inactive
